In one assay the test system is OPM-2. Nature of the assay: Assay 2: multiple myeloma cellular efficacy, PrestoBlue cell proliferation/survival. Format: cell-based. The note with it: Homo sapiens, 96 h, OPM-2 cells, 4 days. The protocol:
Multiple Myeloma Cellular Efficacy:
10000 OPM-2 (ACC50; DSMZ) were plated into wells of a 384 well plate (Greiner 781090). Cells were treated for 4 days with a dose range of compound or vehicle. At the end of the experiment cells were stained directly with PrestoBlue (ThermoFisher Scietific; A13262) for 2 hours at 37° C. in a humidified incubator according to manufactor's instruction. To assess the relative cell number the PrestoBlue signal was measured using either a TecanM1000Pro reader or a Tecan Sparks reader following the manufactor's instructions. Background (no cells) values were subtracted and set in relation to the vehicle control. To assess the EC50 of each compound the relative fluorescence value was plotted against the compound concentration after log transformation. Data were fitted in a nonlinear manner with a variable slope (four parameters) using graphpad prism software. Cellular efficacy of compounds was evaluated in the multiple myeloma cell line OPM-2 using the cell proliferation/survival assay PrestoBlue. EC50 values are classified as indicated below.

A further assay relates to A375 cells. The assay can be described thus: Assay 1: A375 cells treated with S1152, S1008 and compound, immunofluorescence (sc-365823) signal. Particulars: 1 μM S1152 + 0.5 μM S1008, one day. The format is cell-based. A digest of the protocol: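 A375 cells treated one day with 1 μM S1152, 0.5 μM S1008 and compound dose ranges in DMEM/10% FCS, then fixed, permeabilised and immunostained. Green signal normalised to nuclear counterstain (ethidium-type or DAPI), log ratio fitted by four-parameter regression for EC50.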

Structures are written as SMILES. A value given as a limit tells only on which side of the number the result lay.

In the case of `CC(=O)N1C[C@H](c2nc(Nc3cccc(-c4ncn(C)n4)c3)cc(-c3cccnc3)n2)CC[C@@H]1C` [Compound 00052, 1-((2S,5R)-2-methyl-5-(4-((3-(1-methyl-1H-1,2,4-triazol-3-yl)phenyl)amino)-6-(pyridin-3-yl)pyrimidin-2-yl)piperidin-1-yl)ethan-1-one], the EC50 in the assay with OPM-2 and in the assay on A375 cells was less than 200 nM in each case.

`CC(=O)Nc1cc(Nc2cc(-c3cnccn3)nc([C@@H]3CC[C@H](C)N(C(C)=O)C3)n2)ccn1` [Compound 00137, N-(4-((2-((3R,6S)-1-acetyl-6-methylpiperidin-3-yl)-6-(pyrazin-2-yl)pyrimidin-4-yl)amino)pyridin-2-yl)acetamide]: the EC50 (usually the concentration that produces a half-maximal response) in the assay on OPM-2 lay in the range of 1000 to 10000 nM; in the assay with A375 cells, 200 to 1000 nM.

Take `CC(=O)Nc1cc(Nc2cc(-c3cccnc3)nc([C@@H]3CC[C@H](C)N(C(C)=O)C3)n2)ccn1` [Compound 00136, N-(4-((2-((3R,6S)-1-acetyl-6-methylpiperidin-3-yl)-6-(pyridin-3-yl)pyrimidin-4-yl)amino)pyridin-2-yl)acetamide]: the EC50 in the assay on OPM-2 and in the assay with A375 cells was 1000 to 10000 nM throughout.

For `COc1cc(Nc2cc(-c3cccnc3)nc([C@@H]3CC[C@H](C)N(C(C)=O)C3)n2)ccn1` [Compound 00139, 1-((2S,5R)-5-(4-((2-methoxypyridin-4-yl)amino)-6-(pyridin-3-yl)pyrimidin-2-yl)-2-methylpiperidin-1-yl)ethan1-one], the EC50 in the assay with OPM-2 and in the assay with A375 cells was less than 200 nM in each case.

As to `CC(=O)N1C[C@H](c2nc(Nc3cccc(-n4cncn4)c3)cc(-c3cccnc3)n2)CC[C@@H]1C` [Compound 00078, 1-((2S,5R)-5-(4-((3-(1H-1,2,4-triazol-1-yl)phenyl)amino)-6-(pyridin-3-yl)pyrimidin-2-yl)-2-methylpiperidin-1-yl)ethan-1-one], the EC50 in the assay on OPM-2 and in the assay with A375 cells was less than 200 nM each time.

`CC(=O)N1C[C@H](c2nc(Nc3cccc(-n4ccc(C)n4)c3)cc(-c3cccnc3)n2)CC[C@@H]1C` [Compound 00077, 1-((2S,5R)-2-methyl-5-(4-((3-(3-methyl-1H-pyrazol-1-yl)phenyl)amino)-6-(pyridin-3-yl)pyrimidin-2-yl)piperidin-1-yl)ethan-1-one]: the values for the EC50 with OPM-2 and in the assay on A375 cells were 200 to 1000 nM and less than 200 nM, respectively.

Regarding `CC(=O)N1C[C@H](c2nc(Nc3cccc(C(C)(F)F)c3)cc(-c3cccnc3)n2)CC[C@@H]1C` [Compound 00058, 1-((2S,5R)-5-(4-((3-(1,1-difluoroethyl)phenyl)amino)-6-(pyridin-3-yl)pyrimidin-2-yl)-2-methylpiperidin-1-yl)ethan-1-one], the values for the EC50 in the assay on OPM-2 and in the assay on A375 cells were 200 to 1000 nM and less than 200 nM, respectively.

Consider `CC(=O)N1C[C@H](c2nc(Nc3cccc(-c4noc(C)n4)c3)cc(-c3cnccn3)n2)CC[C@@H]1C` [Compound 00064, 1-((2S,5R)-2-methyl-5-(4-((3-(5-methyl-1,2,4-oxadiazol-3-yl)phenyl)amino)-6-(pyrazin-2-yl)pyrimidin-2-yl)piperidin-1-yl)ethan-1-one], for which the EC50 in the assay with OPM-2 and in the assay on A375 cells was less than 200 nM throughout.

As for `CC(=O)N1C[C@H](c2nc(Nc3cc(C)ncn3)cc(-c3cnccn3)n2)CC[C@@H]1C` [Compound 00151, 1-((2S,5R)-2-methyl-5-(4-((6-methylpyrimidin-4-yl)amino)-6-(pyrazin-2-yl)pyrimidin-2-yl)piperidin-1-yl)ethan-1-one], the EC50 in the assay on OPM-2 and in the assay with A375 cells was 200 to 1000 nM throughout.

On to `COc1cc(Nc2cc(-c3cccnc3)nc([C@@H]3CC[C@H](C)N(C(C)=O)C3)n2)cc(C)n1` [Compound 00140, 1-((2S,5R)-5-(4-((2-methoxy-6-methylpyridin-4-yl)amino)-6-(pyridin-3-yl)pyrimidin-2-yl)-2-methylpiperidin-1-yl)ethan-1-one], for which the concentration for a half-maximal effect (EC50) in the assay with OPM-2 and in the assay on A375 cells was less than 200 nM each time.

Take `CC(=O)Nc1cc(F)cc(Nc2cc(-c3cccnc3)nc([C@@H]3CC[C@H](C)N(C(C)=O)C3)n2)c1` [Compound 00047, N-(3-((2-((3R,6S)-1-acetyl-6-methylpiperidin-3-yl)-6-(pyridin-3-yl)pyrimidin-4-yl)amino)-5-fluorophenyl)acetamide]: the EC50 with OPM-2 and with A375 cells was less than 200 nM in each case.

Regarding `CC(=O)N1C[C@H](c2nc(Nc3cc(F)cc(N4CCOCC4)c3)cc(-c3cnccn3)n2)CC[C@@H]1C` [Compound 00070, 1-((2S,5R)-5-(4-((3-fluoro-5-morpholinophenyl)amino)-6-(pyrazin-2-yl)pyrimidin-2-yl)-2-methylpiperidin-1-yl)ethan-1-one], the EC50 with OPM-2 and in the assay with A375 cells was less than 200 nM in each case.

As to `CC(=O)N1C[C@H](c2nc(Nc3ccnc(OC(C)C)c3)cc(-c3cnccn3)n2)CC[C@@H]1C` [Compound 00155, 1-((2S,5R)-5-(4-((2-isopropoxypyridin-4-yl)amino)-6-(pyrazin-2-yl)pyrimidin-2-yl)-2-methylpiperidin-1-yl)ethan-1-one], the EC50 with OPM-2 and in the assay with A375 cells was 200 to 1000 nM each time.

In the case of `CC(=O)N1C[C@H](c2nc(Nc3ccnc(C)c3)cc(-c3cncc4c3ccn4C)n2)CC[C@@H]1C` [Compound 00116, 1-((2S,5R)-2-methyl-5-(4-(1-methyl-1/7-pyrrolo[2,3-c]pyridin4-yl)-6-((2-methylpyridin-4-yl)amino)pyrimidin-2-yl)piperidin1-yl)ethan-1-one], the EC50 in the assay on OPM-2 and in the assay with A375 cells was less than 200 nM in each case.

Regarding `CC(=O)N1C[C@H](c2nc(Nc3ccc4oc(C)nc4c3)cc(-c3cccnc3)n2)CC[C@@H]1C` [Compound 00147, 1-((2S,5R)-2-methyl-5-(4-((2-methylbenzo[d]oxazol-5-yl)amino)-6-(pyridin-3-yl)pyrimidin-2-yl)piperidin-1-yl)ethan-1-one], the EC50 with OPM-2 and in the assay with A375 cells was less than 200 nM each time.

Consider `CC(=O)N1C[C@H](c2nc(Nc3cc(C)nc(-c4cnn(C)c4)c3)cc(-c3cnccn3)n2)CC[C@@H]1C` [Compound 00154, 1-((2S,5R)-2-methyl-5-(4-((2-methyl-6-(1-methyl-1H-pyrazol-4-yl)pyridin-4-yl)amino)-6-(pyrazin2-yl)pyrimidin-2-yl)piperidin-1-yl)ethan-1-one], for which the EC50 is 200 to 1000 nM in the assay with OPM-2 and less than 200 nM with A375 cells.

Take `CC(=O)N1C[C@H](c2nc(Nc3ccnc(C(F)(F)F)c3)cc(-c3cccnc3)n2)CC[C@@H]1C` [Compound 00123, 1-((2S,5R)-2-methyl-5-(4-(pyridin-3-yl)-6-((2-(trifluoromethyl)pyridin-4-yl)amino)pyrimidin-2-yl)piperidin 1-yl)ethan-1-one]: the EC50 with OPM-2 and in the assay with A375 cells was less than 200 nM each time.

Turning to `CC(=O)N1C[C@H](c2nc(Nc3cc(F)cc(-c4cnn(C)c4)c3)cc(-c3cncc(OCCO)c3)n2)CC[C@@H]1C` [Compound 00093, 1-((2S,5R)-5-(4-((3-fluoro-5-(1-methyl-1H-pyrazol-4-yl)phenyl)amino)-6-(5-(2-hydroxyethoxy)pyridin-3-yl)pyrimidin-2-yl)-2-methylpiperidin-1-yl)ethan-1-one], the EC50 in the assay on OPM-2 and in the assay with A375 cells was less than 200 nM throughout.

For the molecule `CC(=O)N1C[C@H](c2nc(Nc3cc(C)nc(F)c3)cc(-c3cccnc3)n2)CC[C@@H]1C` [Compound 00134, 1-((2S,5R)-5-(4-((2-fluoro-6-methylpyridin-4-yl)amino)-6-(pyridin-3-yl)pyrimidin-2-yl)-2-methylpiperidin-1-yl)ethan1-one], the EC50 in the assay with OPM-2 and with A375 cells was less than 200 nM throughout.

Turning to `COCCn1cc(-c2cc(Nc3cc(-c4cccnc4)nc([C@@H]4CC[C@H](C)N(C(C)=O)C4)n3)ccn2)cn1` [Compound 00160, 1-((2S,5R)-5-(4-((2-(1-(2-methoxyethyl)-1H-pyrazol-4-yl)pyridin-4-yl)amino)-6-(pyridin-3-yl)pyrimidin-2-yl)-2-methylpiperidin-1-yl)ethan-1-one], the EC50 in the assay with OPM-2 and in the assay on A375 cells was 200 to 1000 nM in each case.

Consider `COCCn1ccc2c(-c3cc(Nc4cccc(-c5cn(C)nn5)c4)nc([C@@H]4CC[C@H](C)N(C(C)=O)C4)n3)cncc21` [Compound 00094, 1-((2S,5R)-5-(4-(1-(2-methoxyethyl)-1H-pyrrolo[2,3-c]pyridin4-yl)-6-((3-(1-methyl-1H-1,2,3-triazol-4-yl)phenyl)amino)pyrimidin-2-yl)-2-methylpiperidin-1-yl)ethan1-one], for which the EC50 in the assay on OPM-2 and with A375 cells was less than 200 nM throughout.

`CC(=O)N1C[C@H](c2nc(Nc3cccc4c3cnn4C)cc(-c3cccnc3)n2)CC[C@@H]1C` [Compound 00056, 1-((2S,5R)-2-methyl-5-(4-((1-methyl-1H-indazol-4-yl)amino)-6-(pyridin-3-yl)pyrimidin-2-yl)piperidin-1-yl)ethan-1-one]: the 50% effective concentration (EC50) in the assay on OPM-2 and in the assay on A375 cells was less than 200 nM each time.

Regarding `CC(=O)N1C[C@H](c2nc(Nc3cccc(-n4cnnn4)c3)cc(-c3cccnc3)n2)CC[C@@H]1C` [Compound 00063, 1-((2S,5R)-5-(4-((3-(1H-tetrazol-1-yl)phenyl)amino)-6-(pyridin-3-yl)pyrimidin-2-yl)-2-methylpiperidin-1-yl)ethan-1-one], the EC50 in the assay on OPM-2 was 200 to 1000 nM; in the assay on A375 cells it was less than 200 nM.

Values taken from patent publication US12478624B2, “Heterocyclic derivatives, pharmaceutical compositions and their use in the treatment or amelioration of cancer” (Tolremo Therapeutics AG, priority 2019, dated 2025).
